According to patent US8697739B2, “Bicyclic acetyl-CoA carboxylase inhibitors and uses thereof” (Novartis AG, priority 2010, dated 2014):

Target: T1, human acetyl-CoA carboxylase 2 (ACC2) (Homo sapiens, UniProt O00763)
T1 construct: The cDNA encoding amino acids 144 to 2458 of human acetyl-CoA carboxylase 2; made in house; host or cells: Sf9 insect cells (baculovirus, pFastBac1)
Assay: Acetyl-CoA carboxylase enzyme assay (malonyl-CoA formation by LC/MS/MS)
Assay type: biochemical
Details: recombinant human ACC2 (aa 144-2458); read-out: IC50 ACC2
How it was run: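 Malonyl-CoA formation was read by LC/MS/MS MRM against a [13C3]-malonyl-CoA internal standard, after acetic acid quench. The enzyme was baculovirus/Sf9-expressed human ACC2 residues 144–2458, given 15 minutes room-temperature compound preincubation in HEPES pH 7.5 buffer with MgCl2, citrate and DTT. Substrate solution held 50 μM acetyl-CoA, 120 μM ATP and 2 mM KHCO3.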

T1 sequence (O00763 144-2458): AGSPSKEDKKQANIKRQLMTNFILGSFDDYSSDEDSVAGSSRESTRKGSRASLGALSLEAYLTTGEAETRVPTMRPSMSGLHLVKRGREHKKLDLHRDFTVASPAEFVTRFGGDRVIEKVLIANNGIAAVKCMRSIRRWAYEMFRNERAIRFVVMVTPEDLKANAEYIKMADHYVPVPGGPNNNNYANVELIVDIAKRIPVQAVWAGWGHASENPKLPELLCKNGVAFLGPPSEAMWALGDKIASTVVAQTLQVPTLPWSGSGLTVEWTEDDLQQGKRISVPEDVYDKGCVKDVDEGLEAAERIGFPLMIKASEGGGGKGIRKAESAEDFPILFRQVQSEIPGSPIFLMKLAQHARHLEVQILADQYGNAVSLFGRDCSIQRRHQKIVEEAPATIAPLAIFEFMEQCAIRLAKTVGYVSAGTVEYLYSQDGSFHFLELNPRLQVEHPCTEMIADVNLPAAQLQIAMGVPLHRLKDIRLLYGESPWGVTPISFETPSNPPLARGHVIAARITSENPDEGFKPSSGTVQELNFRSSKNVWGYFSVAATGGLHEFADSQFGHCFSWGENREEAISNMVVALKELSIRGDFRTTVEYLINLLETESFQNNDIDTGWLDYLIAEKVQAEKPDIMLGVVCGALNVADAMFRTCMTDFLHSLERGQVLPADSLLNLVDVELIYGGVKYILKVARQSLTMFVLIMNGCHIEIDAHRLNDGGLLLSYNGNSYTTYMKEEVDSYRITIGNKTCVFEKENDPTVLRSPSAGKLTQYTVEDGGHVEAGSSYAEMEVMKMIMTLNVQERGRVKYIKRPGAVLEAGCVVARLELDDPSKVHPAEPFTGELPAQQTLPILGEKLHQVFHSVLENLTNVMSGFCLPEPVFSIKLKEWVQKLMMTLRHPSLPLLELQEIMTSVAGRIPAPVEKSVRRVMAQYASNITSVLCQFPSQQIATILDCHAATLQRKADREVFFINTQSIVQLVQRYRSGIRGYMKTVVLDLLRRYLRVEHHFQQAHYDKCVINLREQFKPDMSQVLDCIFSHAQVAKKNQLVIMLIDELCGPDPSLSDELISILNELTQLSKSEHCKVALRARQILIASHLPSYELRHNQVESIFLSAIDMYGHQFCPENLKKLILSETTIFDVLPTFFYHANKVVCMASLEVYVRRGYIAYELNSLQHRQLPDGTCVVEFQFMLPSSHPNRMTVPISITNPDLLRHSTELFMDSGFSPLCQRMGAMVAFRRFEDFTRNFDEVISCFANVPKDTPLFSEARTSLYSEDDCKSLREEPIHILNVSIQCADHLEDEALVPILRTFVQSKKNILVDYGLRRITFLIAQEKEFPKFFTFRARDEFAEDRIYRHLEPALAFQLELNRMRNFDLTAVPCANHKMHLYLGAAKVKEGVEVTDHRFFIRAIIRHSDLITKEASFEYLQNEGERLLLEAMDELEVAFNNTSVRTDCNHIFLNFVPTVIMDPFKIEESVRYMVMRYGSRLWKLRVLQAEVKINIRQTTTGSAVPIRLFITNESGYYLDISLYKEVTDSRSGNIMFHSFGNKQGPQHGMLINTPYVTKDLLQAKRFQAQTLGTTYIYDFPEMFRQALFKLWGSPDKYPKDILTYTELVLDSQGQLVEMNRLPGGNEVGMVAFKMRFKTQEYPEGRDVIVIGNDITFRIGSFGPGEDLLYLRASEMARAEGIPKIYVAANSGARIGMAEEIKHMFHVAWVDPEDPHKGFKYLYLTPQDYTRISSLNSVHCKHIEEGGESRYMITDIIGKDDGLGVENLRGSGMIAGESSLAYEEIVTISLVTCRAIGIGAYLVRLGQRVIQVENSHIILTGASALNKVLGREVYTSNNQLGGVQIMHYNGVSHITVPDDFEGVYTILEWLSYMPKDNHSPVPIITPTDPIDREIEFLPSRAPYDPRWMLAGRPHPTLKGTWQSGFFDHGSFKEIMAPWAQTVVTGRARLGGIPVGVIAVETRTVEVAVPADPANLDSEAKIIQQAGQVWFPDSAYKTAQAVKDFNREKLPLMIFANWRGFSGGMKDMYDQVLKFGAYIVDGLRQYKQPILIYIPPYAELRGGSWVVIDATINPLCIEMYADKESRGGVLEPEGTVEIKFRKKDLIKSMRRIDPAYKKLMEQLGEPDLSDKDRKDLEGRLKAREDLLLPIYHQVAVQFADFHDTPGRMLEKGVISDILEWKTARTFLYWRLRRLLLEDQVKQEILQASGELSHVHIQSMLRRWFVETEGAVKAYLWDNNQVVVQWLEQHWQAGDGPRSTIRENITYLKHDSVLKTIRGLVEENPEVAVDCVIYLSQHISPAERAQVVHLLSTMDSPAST

Row | SMILES | IC50 [nM]
1 | CC(C)[Si](C(C)C)(C(C)C)n1cc(Cl)c2ccc(S(=O)(=O)N[C@H]3CC[C@H](C(=O)N[C@H](C)c4ccc(F)cc4)CC3)cc21 [Example 116, (1r,4R)-4-(3-chloro-1-(triisopropylsilyl)-1H-indole-6-sulfonamido)-N-((R)-1-(4-fluorophenyl)ethyl)cyclohexanecarboxamide] | 13
2 | C[C@@H](NC(=O)[C@H]1CC[C@H](NS(=O)(=O)c2ccc3c(c2)OCCO3)CC1)c1ccc(F)cc1 [Example 123, (1r,4R)-4-(2,3-dihydrobenzo[b][1,4]dioxine-6-sulfonamido)-N-((R)-1-(4-fluorophenyl)ethyl)cyclohexanecarboxamide] | 450
3 | C[C@@H](NC(=O)[C@H]1CC[C@H](NS(=O)(=O)c2cnc3c(c2)OCCN3C)CC1)c1ccc(F)cc1 [Example 127, (1r-4R)-N-((R)-1-(4-fluorophenyl)ethyl)-4-(4-methyl-3,4-dihydro-2H-pyrido[3,2-b][1,4]oxazine-7-sulfonamido)cyclohexanecarboxamide] | 391
4 | C[C@@H](NC(=O)[C@H]1CC[C@H](NS(=O)(=O)c2cnc3c(c2)N(C)CCCN3C)CC1)c1ccc(F)cc1 [Example 128, (1r,4R)-4-(1,5-dimethyl-2,3,4,5-tetrahydro-1H-pyrido[2,3-b][1,4]diazepine-8-sulfonamido)-N-((R)-1-(4-fluorophenyl)ethyl)cyclohexanecarboxamide] | 146
5 | C[C@@H]1CCCN1C(=O)[C@H]1CC[C@H](NS(=O)(=O)c2cnc3c(c2)N(C)CCN3C)CC1 [Example 129, 1,4-dimethyl-N-((1R,4r)-4-((R)-2-methylpyrrolidine-1-carbonyl)cyclohexyl)-1,2,3,4-tetrahydropyrido[3,2-b]pyrazine-7-sulfonamide] | 10400
6 | C[C@@H](NC(=O)[C@H]1CC[C@H](NS(=O)(=O)c2cnc3c(c2)N(C)CCN3)CC1)c1ccc(F)cc1 [Example 130, (1r,4R)-N-((R)-1-(4-fluorophenyl)ethyl)-4-(1-methyl-1,2,3,4-tetrahydropyrido[3,2-b]pyrazine-7-sulfonamido)cyclohexanecarboxamide] | 59
7 | C[C@@H](NC(=O)[C@H]1CC[C@H](NS(=O)(=O)c2cnc3c(c2)N(C)CCO3)CC1)c1ccc(F)cc1 [Example 131, (1r,4R)-N-((R)-1-(4-fluorophenyl)ethyl)-4-(1-methyl-2,3-dihydro-1H-pyrido[2,3-b][1,4]oxazine-7-sulfonamido)cyclohexanecarboxamide] | 173
8 | C[C@@H](NC(=O)[C@H]1CC[C@H](NS(=O)(=O)c2ccc3c(c2)N(C)CCN3C)CC1)c1ccc(F)cc1 [Example 133, (1r,4R)-4-(1,4-dimethyl-1,2,3,4-tetrahydroquinoxaline-6-sulfonamido)-N-((R)-1-(4-fluorophenyl)ethyl)cyclohexanecarboxamide] | 46
9 | C[C@@H](NC(=O)[C@H]1CC[C@H](NS(=O)(=O)c2cnc3c(c2)N(CC(F)(F)F)CCN3C)CC1)c1ccc(F)cc1 [Example 135, (1r,4R)-N-((R)-1-(4-fluorophenyl)ethyl)-4-(4-methyl-1-(2,2,2-triffuoroethyl)-1,2,3,4-tetrahydropyrido[3,2-b]pyrazine-7-sulfonamido)cyclohexanecarboxamide] | 157
10 | Cc1c[nH]c2ncc(S(=O)(=O)N[C@H]3CC[C@H](C(=O)N[C@H](C)c4ccc(F)cc4)CC3)cc12 [Example 138, (1r,4R)-N-((R)-1-(4-fluorophenyl)ethyl)-4-(3-methyl-1H-pyrrolo[2,3-b]pyridine-5-sulfonamido)cyclohexanecarboxamide] | 147
11 | Cc1ccnc2ncc(S(=O)(=O)N[C@H]3CC[C@H](C(=O)N[C@H](C)c4ccc(F)cc4)CC3)cc12 [Example 140, (1r,4R)-N-((R)-1-(4-fluorophenyl)ethyl)-4-(5-methyl-1,8-naphthyridine-3-sulfonamido)cyclohexanecarboxamide] | 986
12 | CC(C)N1CCNc2ncc(S(=O)(=O)N[C@H]3CC[C@H](C(=O)N[C@H](C)c4ccc(F)cc4)CC3)cc21 [Example 141, (1r,4R)-N-((R)-1-(4-fluorophenyl)ethyl)-4-(1-isopropyl-1,2,3,4-tetrahydropyrido[3,2-b]pyrazine-7-sulfonamido)cyclohexanecarboxamide] | 579
13 | C[C@@H](NC(=O)[C@H]1CC[C@H](NS(=O)(=O)c2cnc3c(c2)NCCN3C)CC1)c1ccc(F)cc1 [Example 142, (1r,4R)-N-((R)-1-(4-fluorophenyl)ethyl)-4-(4-methyl-1,2,3,4-tetrahydropyrido[3,2-b]pyrazine-7-sulfonamido)cyclohexanecarboxamide] | 68
14 | CC(C)N1CCN(C(C)C)c2ncc(S(=O)(=O)N[C@H]3CC[C@H](C(=O)N[C@H](C)c4ccc(F)cc4)CC3)cc21 [Example 143, (1r,4R)-4-(1,4-diisopropyl-1,2,3,4-tetrahydropyrido[3,2-b]pyrazine-7-sulfonamido)-N-((R)-1-(4-fluorophenyl)ethyl)cyclohexanecarboxamide] | 325

Next, values leading:

Row | IC50 [nM] | SMILES
15 | 574 | C[C@@H](NC(=O)[C@H]1CC[C@H](NS(=O)(=O)c2ccc3[nH]c([C@H]4CCCO4)nc3c2)CC1)c1ccc(F)cc1 [Example 117, (1r,4R)-N-((R)-1-(4-fluorophenyl)ethyl)-4-(2-((R)-tetrahydrofuran-2-yl)-1H-benzo[d]imidazole-5-sulfonamido)cyclohexanecarboxamide]
16 | 1750 | C[C@@H](NC(=O)[C@H]1CC[C@H](NS(=O)(=O)c2ccc3[nH]c([C@@H]4CC(F)(F)CN4)nc3c2)CC1)c1ccc(F)cc1 [Example 118, (1r,4R)-4-(2-((S)-4,4-difluoropyrrolidin-2-yl)-1H-benzo[d]imidazole-5-sulfonamido)-N-((R)-1-(4-fluorophenyl)ethyl)cyclohexanecarboxamide]
17 | 161 | C[C@@H](NC(=O)[C@H]1CC[C@H](NS(=O)(=O)c2ccc3c(c2)CCC3)CC1)c1ccc(F)cc1 [Example 119, (1r,4R)-4-(2,3-dihydro-1H-indene-5-sulfonamido)-N-((R)-1-(4-fluorophenyl)ethyl)cyclohexanecarboxamide]
18 | 34 | C[C@@H](NC(=O)[C@H]1CC[C@H](NS(=O)(=O)c2ccc3nc(-c4ccccc4)sc3c2)CC1)c1ccc(F)cc1 [Example 120, (1r,4R)-N-((R)-1-(4-fluorophenyl)ethyl)-4-(2-phenylbenzo[d]thiazole-6-sulfonamido)cyclohexanecarboxamide]
19 | 17 | C[C@@H](NC(=O)[C@H]1CC[C@H](NS(=O)(=O)c2ccc3[nH]c(-c4ccccc4)nc3c2)CC1)C1CCCCC1 [Example 121, (1r,4R)-N-((R)-1-cyclohexylethyl)-4-(2-phenyl-1H-benzo[d]imidazole-5-sulfonamido)cyclohexanecarboxamide]
20 | 16 | C[C@@H](NC(=O)[C@H]1CC[C@H](NS(=O)(=O)c2ccc3c(c2)OCCN3C)CC1)c1ccc(F)cc1 [Example 122, (1r,4R)-N-((R)-1-(4-fluorophenyl)ethyl)-4-(4-methyl-3,4-dihydro-2H-benzo[b][1,4]oxazine-7-sulfonamido)cyclohexanecarboxamide]
21 | 32 | Cc1c(Cl)[nH]c2ccc(S(=O)(=O)N[C@H]3CC[C@H](C(=O)N[C@H](C)c4ccc(F)cc4)CC3)cc12 [Example 124, (1r,4R)-4-(2-chloro-3-methyl-1H-indole-5-sulfonamido)-N-((R)-1-(4-fluorophenyl)ethyl)cyclohexanecarboxamide]
22 | 58 | C[C@@H]1CCCN1C(=O)[C@H]1CC[C@H](NS(=O)(=O)c2ccc3[nH]c(-c4ccccc4)nc3c2)CC1 [Example 125, N-((1R,4r)-4-((R)-2-methylpyrrolidine-1-carbonyl)cyclohexyl)-2-phenyl-1H-benzo[d]imidole-5-sulfonamide]
23 | 71 | COCCn1c(-c2ccccc2)nc2cc(S(=O)(=O)N[C@H]3CC[C@H](C(=O)N[C@H](C)c4ccc(F)cc4)CC3)ccc21 [Example 126, (1r,4R)-N-((R)-1-(4-fluorophenyl)ethyl)-4-(1-(2-methoxyethyl)-2-phenyl-1H-benzo[d]imidazole-5-sulfonamido)cyclohexanecarboxamide]
24 | 68 | C[C@@H](NC(=O)[C@H]1CC[C@H](NS(=O)(=O)c2cnc3c(c2)N(C2CC2)CCN3C)CC1)c1ccc(F)cc1 [Example 132, (1r,4R)-4-(1-cyclopropyl-4-methyl-1,2,3,4-tetrahydropyrido[3,2-b]pyrazine-7-surfonamido)-N-((R)-1-(4-fluorophenyl)ethyl)cyclohexanecarboxamide]
25 | 28 | C[C@@H](NC(=O)[C@H]1CC[C@H](NS(=O)(=O)c2cnc3c(c2)N(C)C2CCCCC2N3C)CC1)c1ccc(F)cc1 (stereo partly drawn) [Example 134, (1r,4R)-4-(5,10-dimethyl-5,5a,6,7,8,9,9a,10-octahydropyrido[3,2-b]quinoxaline-3-sulfonamido)-N((R)-1-(4-fluorophenyl)ethyl)cyclohexanecarboxamide]
26 | 187 | Cc1ccccc1-c1cc2ccc(S(=O)(=O)N[C@H]3CC[C@H](C(=O)N4CCOCC4)CC3)cc2[nH]1 [Example 136, N-((1R,4r)-4-(morpholine-4-carbonyl)cyclohexyl)-2-o-tolyl-1H-indole-6-sulfonamide]
27 | 162 | Cc1ccccc1-c1cc2ccc(S(=O)(=O)N[C@H]3CC[C@H](C(=O)N4CCC[C@H]4C)CC3)cc2[nH]1 [Example 137, N-((1R,4r)-4-((R)-2-methylpyrrolidine-1-carbonyl)cyclohexyl)-2-o-tolyl-1H-indole-6-sulfonamide]
28 | 16 | C[C@@H](NC(=O)[C@H]1CC[C@H](NS(=O)(=O)c2cnc3c(c2)N(C)[C@@H]2CCCC[C@H]2N3C)CC1)c1ccc(F)cc1 [Example 139, (1R,4R)-4-((5aR,9aR)-5,10-dimethyl-5,5a,6,7,8,9,9a,10-octahydropyrido[3,2-b]quinoxaline-3-sulfonamido)-N-((R)-1-(4-fluorophenyl)ethyl)cyclohexanecarboxamide]
